From patent publication US20260062443A1 (ALEXION PHARMACEUTICALS, INC., priority 2022, published 2026)

Biological target: T1, Human complement C1s enzyme (Homo sapiens, UniProt P09871)
T1 sequence (P09871 438-688 limits assumed): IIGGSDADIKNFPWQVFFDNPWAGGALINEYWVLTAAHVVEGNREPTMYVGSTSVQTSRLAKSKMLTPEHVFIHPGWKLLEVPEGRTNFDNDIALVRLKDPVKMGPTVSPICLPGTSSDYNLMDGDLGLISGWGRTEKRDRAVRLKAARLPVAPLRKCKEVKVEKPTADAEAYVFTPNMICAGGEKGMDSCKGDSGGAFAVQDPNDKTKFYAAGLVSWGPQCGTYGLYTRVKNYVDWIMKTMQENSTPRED
T1 sequence (P09871 16-437 partner limits assumed): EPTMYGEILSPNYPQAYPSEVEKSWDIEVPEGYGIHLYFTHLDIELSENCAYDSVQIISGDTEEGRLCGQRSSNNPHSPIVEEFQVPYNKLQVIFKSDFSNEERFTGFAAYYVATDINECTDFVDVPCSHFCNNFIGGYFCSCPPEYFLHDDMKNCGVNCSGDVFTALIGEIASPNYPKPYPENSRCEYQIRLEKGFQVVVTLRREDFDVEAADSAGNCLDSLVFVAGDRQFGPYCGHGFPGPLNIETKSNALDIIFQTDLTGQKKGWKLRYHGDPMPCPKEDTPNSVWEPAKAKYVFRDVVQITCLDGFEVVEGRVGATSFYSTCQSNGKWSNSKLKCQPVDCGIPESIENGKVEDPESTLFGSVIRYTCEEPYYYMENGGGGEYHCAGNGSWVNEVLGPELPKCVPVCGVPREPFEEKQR
Assay: Human C1s enzyme assay
Format: biochemical
Details: human complement C1s enzyme 1.16 nM, substrate Z-L-Lys-SBzl 100 μM, 5 min preincubation; read-out: IC50 (Stars), C1s Inhibiting Activity
Description: Other standard complement assays are also available.
Human complement C1s enzyme (purified from human serum, Complement Technology, Inc.) at 1.16 nM final concentration was incubated with test compound at various concentrations for 5 min at room temperature in 50 mM Tris, 1 M NaCl, pH 7.5. A synthetic substrate Z-L-Lys-SBzl and DTNB (Ellman's reagent) were added to final concentrations of 100 μM each. Absorbance at 405 nm (A405) was recorded at 30 second intervals for 30 min using a microplate spectrophotometer. IC50 values were calculated by nonlinear regression of complement C1 s reaction rates as a function of test compound concentration.
ND indicates a compound for which the IC50 value is not determined.

| SMILES | IC50 [nM] |
| --- | --- |
| Cn1c(CNC(=O)[C@@H]2CC3(CN2C(=O)CNC(=O)c2ccc4c(c2)Oc2ccccc2S4)OCCO3)cc2cnccc21 [Compound 46, (S)-N-((1-methyl-1H-pyrrolo[3,2-c]pyridin-2-yl)methyl)-7-((phenoxathiine-3-carbonyl)glycyl)-1,4-dioxa-7-azaspiro[4.4]nonane-8-carboxamide] | > 1000 |
| C[C@@H](NC(=O)[C@@H]1CC2(CN1C(=O)CNC(=O)c1ccc3c(c1)Oc1ccccc1S3)OCCO2)c1cc2cnccc2[nH]1 [Compound 47, (S)-N-((R)-1-(1H-pyrrolo[3,2-c]pyridin-2-yl)ethyl)-7-((phenoxathiine-3-carbonyl)glycyl)-1,4-dioxa-7-azaspiro[4.4]nonane-8-carboxamide] | < 100 |
| O=C(NCC(=O)N1CC2(C[C@H]1C(=O)NCc1cc3nccnc3[nH]1)OCCO2)c1ccc2c(c1)Oc1ccccc1S2 [Compound 48, (S)-N-((5H-pyrrolo[2,3-b]pyrazin-6-yl)methyl)-7-((phenoxathiine-3-carbonyl)glycyl)-1,4-dioxa-7-azaspiro[4.4]nonane-8-carboxamide] | > 1000 |
| O=C(NCC(=O)N1CC2(C[C@H]1C(=O)NCc1nc3cnccc3[nH]1)OCCO2)c1ccc2c(c1)Oc1ccccc1S2 [Compound 49, (S)-N-((1H-imidazo[4,5-c]pyridin-2-yl)methyl)-7-((phenoxathiine-3-carbonyl)glycyl)-1,4-dioxa-7-azaspiro[4.4]nonane-8-carboxamide] | > 1000 |
| O=C(NCC(=O)N1CC2(C[C@H]1C(=O)NCc1cc3cnccc3o1)OCCO2)c1ccc2c(c1)Oc1ccccc1S2 [Compound 50, (S)-N-(furo[3,2-c]pyridin-2-ylmethyl)-7-((phenoxathiine-3-carbonyl)glycyl)-1,4-dioxa-7-azaspiro[4.4]nonane-8-carboxamide] | 100 to 1000 |
| Nc1nccc2ccc(CNC(=O)[C@@H]3CC4(CN3C(=O)CNC(=O)c3ccc5c(c3)Oc3ccccc3S5)OCCO4)cc12 [Compound 51, (S)-N-((1-aminoisoquinolin-7-yl)methyl)-7-((phenoxathiine-3-carbonyl)glycyl)-1,4-dioxa-7-azaspiro[4.4]nonane-8-carboxamide] | > 1000 |
| COc1ccc2[nH]c(CNC(=O)[C@@H]3CC4(CN3C(=O)CNC(=O)c3ccc5c(c3)Oc3ccccc3S5)OCCO4)cc2c1 [Compound 52, (S)-N-((5-methoxy-1H-indol-2-yl)methyl)-7-((phenoxathiine-3-carbonyl)glycyl)-1,4-dioxa-7-azaspiro[4.4]nonane-8-carboxamide] | > 1000 |
| O=C(NCC(=O)N1CC2(C[C@H]1C(=O)NCc1cc3cncc(Cl)c3[nH]1)OCCO2)c1ccc2c(c1)Oc1ccccc1S2 [Compound 53, (S)-N-((7-chloro-1H-pyrrolo[3,2-c]pyridin-2-yl)methyl)-7-((phenoxathiine-3-carbonyl)glycyl)-1,4-dioxa-7-azaspiro[4.4]nonane-8-carboxamide] | > 1000 |
| O=C(NCC(=O)N1CC2(C[C@H]1C(=O)NCc1cc3cnccc3s1)OCCO2)c1ccc2c(c1)Oc1ccccc1S2 [Compound 54, (S)-7-((phenoxathiine-3-carbonyl)glycyl)-N-(thieno[3,2-c]pyridin-2-ylmethyl)-1,4-dioxa-7-azaspiro[4.4]nonane-8-carboxamide] | < 100 |
| O=C(NCC(=O)N1CC2(C[C@H]1C(=O)NCc1cc3cc(Br)ccc3[nH]1)OCCO2)c1ccc2c(c1)Oc1ccccc1S2 [Compound 55, (S)-N-((5-bromo-1H-indol-2-yl)methyl)-7-((phenoxathiine-3-carbonyl)glycyl)-1,4-dioxa-7-azaspiro[4.4]nonane-8-carboxamide] | > 1000 |
| C[C@@H](NC(=O)[C@@H]1C[C@]2(C)C[C@@H]2N1C(=O)CNC(=O)CCCOc1ccccc1)c1cc2cnccc2[nH]1 [Compound 56, (1S,3S,5S)-N-((R)-1-(1H-pyrrolo[3,2-c]pyridin-2-yl)ethyl)-5-methyl-2-((4-phenoxybutanoyl)glycyl)-2-azabicyclo[3.1.0]hexane-3-carboxamide] | 100 to 1000 |
| C[C@H](NC(=O)[C@@H]1C[C@]2(C)C[C@@H]2N1C(=O)CNC(=O)CCCOc1ccccc1)c1cc2cnccc2[nH]1 [Compound 57, (1S,3S,5S)-N-((S)-1-(1H-pyrrolo[3,2-c]pyridin-2-yl)ethyl)-5-methyl-2-((4-phenoxybutanoyl)glycyl)-2-azabicyclo[3.1.0]hexane-3-carboxamide] | > 1000 |
| C[C@@]12C[C@@H]1N(C(=O)CNC(=O)CCCOc1ccccc1)[C@H](C(=O)NCc1cc3cnccc3[nH]1)C2 [Compound 58, (1S,3S,5S)-N-((1H-pyrrolo[3,2-c]pyridin-2-yl)methyl)-5-methyl-2-((4-phenoxybutanoyl)glycyl)-2-azabicyclo[3.1.0]hexane-3-carboxamide] | < 100 |
| C[C@@]12C[C@@H]1N(C(=O)CNC(=O)CCCOc1ccccc1)[C@H](C(=O)NCCCn1ccnc1)C2 [Compound 59, (1S,3S,5S)-N-(3-(1H-imidazol-1-yl)propyl)-5-methyl-2-((4-phenoxybutanoyl)glycyl)-2-azabicyclo[3.1.0]hexane-3-carboxamide] | > 1000 |
| C[C@@]12C[C@@H]1N(C(=O)CNC(=O)CCCOc1ccccc1)[C@H](C(=O)N[C@@H]1CCN(C(=O)CCN)C1)C2 [Compound 60, (1S,3S,5S)-N-((R)-1-(3-aminopropanoyl)pyrrolidin-3-yl)-5-methyl-2-((4-phenoxybutanoyl)glycyl)-2-azabicyclo[3.1.0]hexane-3-carboxamide] | > 1000 |
| C[C@@]12C[C@@H]1N(C(=O)CNC(=O)CCCOc1ccccc1)[C@H](C(=O)N[C@@H]1CCN(Cc3c[nH]cn3)C1=O)C2 [Compound 61, (1S,3S,5S)-N-((R)-1-((1H-imidazol-4-yl)methyl)-2-oxopyrrolidin-3-yl)-5-methyl-2-((4-phenoxybutanoyl)glycyl)-2-azabicyclo[3.1.0]hexane-3-carboxamide] | > 1000 |
| C[C@@]12C[C@@H]1N(C(=O)CNC(=O)CCCOc1ccccc1)[C@H](C(=O)NC1(c3ccc4c(c3)CNCC4)CC1)C2 [Compound 62, (1S,3S,5S)-5-methyl-2-((4-phenoxybutanoyl)glycyl)-N-(1-(1,2,3,4-tetrahydroisoquinolin-7-yl)cyclopropyl)-2-azabicyclo[3.1.0]hexane-3-carboxamide] | > 1000 |
| C[C@@]12C[C@@H]1N(C(=O)CNC(=O)CCCOc1ccccc1)[C@H](C(=O)NCc1cnc3c(CN)cccn13)C2 [Compound 63, (1S,3S,5S)-N-((8-(aminomethyl)imidazo[1,2-a]pyridin-3-yl)methyl)-5-methyl-2-((4-phenoxybutanoyl)glycyl)-2-azabicyclo[3.1.0]hexane-3-carboxamide] | > 1000 |
| Cc1cc(CN)cc(C2(NC(=O)[C@@H]3C[C@]4(C)C[C@@H]4N3C(=O)CNC(=O)CCCOc3ccccc3)CC2)c1 [Compound 64, (1S,3S,5S)-N-(1-(3-(aminomethyl)-5-methylphenyl)cyclopropyl)-5-methyl-2-((4-phenoxybutanoyl)glycyl)-2-azabicyclo[3.1.0]hexane-3-carboxamide] | > 1000 |
| Cn1c(C2(NC(=O)[C@@H]3C[C@]4(C)C[C@@H]4N3C(=O)CNC(=O)CCCOc3ccccc3)CC2)nc2ccncc21 [Compound 65, (1S,3S,5S)-5-methyl-N-(1-(3-methyl-3H-imidazo[4,5-c]pyridin-2-yl)cyclopropyl)-2-((4-phenoxybutanoyl)glycyl)-2-azabicyclo[3.1.0]hexane-3-carboxamide] | > 1000 |
